Read-outs that look alike come from different tables or passages of the source.
Experiments:
h-GABA-A α5β3γ2 [1] = molecular target: T1, h-GABA-A α5β3γ2 (Homo sapiens (Human), UniProt P18507+P31644); test: [3H]flumazenil competition binding assay, membranes of HEK293 cells expressing human GABAA receptors
How it was run: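 Membranes were prepared from HEK293 cells with transient human α5β3γ2 expression and assayed in Krebs-tris, pH 7.5. Bound radioactivity measured on filters by liquid scintillation.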

h-GABA-A α5β3γ2 [2] = molecular target: T1, h-GABA-A α5β3γ2; test: Two-electrode voltage clamp electrophysiology in Xenopus oocytes expressing GABAA receptors, modulation of GABA EC20 current; format: cell-based
How it was run: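 Values are % modulation of an EC20 GABA response, derived point by point from the ratio of compound-exposed versus control current traces (extremum taken, 100×(fold−1)). Recordings used oocytes injected with human α5, β3, γ2 mRNA, clamped at −80 mV at room temperature, at least 3 oocytes each.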

[3] = displacement of [3H]flumazenil 0.5 nM, HEK293 cells expressing human receptors, mean of two determinations, read-out: Ki h-GABA-A α5β3γ2
[4] = % modulation of GABA EC20 = 100*(Fold increase−1), Xenopus oocytes
[5] = Xenopus oocytes, GABA EC20, test compound at approx. 30 fold its Ki

Row | Structure (SMILES) | Ki (h-GABA-A α5β3γ2 [1]; reference compounds, GABAA receptor α5β3γ2, read-out: Ki α5-human) | Efficacy (GABA) % (h-GABA-A α5β3γ2 [2]; reference compounds, % modulation of GABA EC20) | Fold increase h-GABA-A α5β3γ2 oocyte (h-GABA-A α5β3γ2 [2]; reference compounds, GABAA α5β3γ2 overexpressing oocytes, GABA EC20) | Ki (h-GABA-A α5β3γ2 [1]; [3]) | Efficacy (GABA) % (h-GABA-A α5β3γ2 [2]; [4]) | Fold increase h-GABA-A α5β3γ2 oocyte (h-GABA-A α5β3γ2 [2]; [5])
1 | Cc1onc(-c2ccc(Cl)cn2)c1COc1ccc(C(=O)NC2CCOCC2)nn1 [RE-B, 6-((3-(5-chloro-2-pyridyl)-5-methyl-isoxazol-4-yl)methoxy)-N-tetrahydropyran-4-yl-pyridazine-3-carboxamide, reference compound] | 0.4 nM | +3% | 1.03 |  |  | 
2 | Cc1ccc(-c2noc(C)c2COc2ccc(C(=O)NC3(C)CCOCC3)cn2)cn1 [Example 106, 6-((5-methyl-3-(6-methylpyridin-3-yl)isoxazol-4-yl)methoxy)-N-(4-methyltetrahydropyran-4-yl)nicotinamide] |  |  |  | 60.3 nM | 64% | 1.64
3 | Cc1ccc(-c2noc(C)c2COc2ccc(C(=O)N[C@]3(C)CCOC3)nn2)cn1 (single isomer, unassigned) [Example 82] |  |  |  | 12.4 nM | 101% | 2.01
4 | Cc1ccc(-c2noc(C)c2COc2ccc(C(=O)NCC3CC3)cn2)cn1 [Example 2, N-(cyclopropylmethyl)-6-((5-methyl-3-(6-methyl-3-pyridyl)isoxazol-4-yl)methoxy)pyridine-3-carboxamide] |  |  |  | 8.3 nM | 63% | 1.63
5 | Cc1ccc(-c2noc(C)c2COc2ccc(C(=O)NCCO)nn2)cn1 [Example 29, N-(2-hydroxyethyl)-6-((5-methyl-3-(6-methylpyridin-3-yl)isoxazol-4-yl)methoxy)pyridazine-3-carboxamide] |  |  |  | 8 nM | 81% | 1.81
6 | Cc1ccc(-c2noc(C3CC3)c2COc2ccc(C(=O)NC3(C)COC3)nn2)cn1 [Example 180] |  |  |  | 32.6 nM | 173% | 2.73
7 | Cc1ccc(-c2noc(C)c2COc2ccc(C(=O)N3C4COCC3C4)nn2)cn1 [Example 157, 3-oxa-6-azabicyclo[3.1.1]heptan-6-yl(6-((5-methyl-3-(6-methylpyridin-3-yl)isoxazol-4-yl)methoxy)pyridazin-3-yl)methanone] |  |  |  | 6 nM | 76% | 1.76
8 | Cc1ccc(-c2noc(C)c2COc2ccc(C(=O)N[C@H]3C[C@@H](OC4CC4)C3)nn2)cn1 [Example 176, cis-N-(3-cyclopropoxycyclobutyl)-6-((5-methyl-3-(6-methylpyridin-3-yl)isoxazol-4-yl)methoxy)pyridazine-3-carboxamide] |  |  |  | 12.7 nM | 64% | 1.64
9 | CCC[C@@H](CO)NC(=O)c1ccc(OCc2c(-c3ccc(C)nc3)noc2C(F)F)nc1 [Example 125, 6-((5-(difluoromethyl)-3-(6-methyl-3-pyridyl)isoxazol-4-yl)methoxy)-N-((1S)-1-(hydroxymethyl)butyl)pyridine-3-carboxamide] |  |  |  | 59 nM | 142% | 2.42
10 | Cc1ccc(-c2noc(C)c2COc2cnc(C(=O)N[C@H]3CC[C@@H](C(F)(F)F)CC3)cn2)cn1 [Example 102, 5-((5-methyl-3-(6-methylpyridin-3-yl)isoxazol-4-yl)methoxy)-N-(cis-4-(trifluoromethyl)cyclohexyl)pyrazine-2-carboxamide] |  |  |  | 20.7 nM | 21% | 1.21
